Source: patent US9439986B2, “Tricarbonyl technetium-99m, rhenium-185/187, or rhenium-188 labeled cyclic RGD derivatives and uses thereof” (BIO IMAGING KOREA CO., LTD., priority 2010, dated 2016)

Experiments:
integrin αvβ3 = settings: cRGDyV 18 mg/Kg tail vein 10 minutes before; at 25 minutes post-injection; compared to images of FIG. 6
Experimental: Upon injection, SPECT/CT images were acquired under following conditions:
The animal models were anesthetized with 2% isofluorane gas for the duration of image acquisition time, and the tumor size of the animal models was 0.4 cc. CT images were taken under condition of 45 v, 178 μA for 4 min and 30 sec., and acquired at 10 minute intervals for total 9 times (i.e., for 90 minutes after the injection).

subcutaneous tumor = assay: Tumor growth suppression and treatment performance of rhenium-188 labeled derivative in tumor model mice (I); format: in vivo
Experimental: Treatment effect experiment was conducted to investigate the ability of tricarbonyl rhenium-188 labeled cyclic RGD derivative to suppress tumor growth.
The rhenium-188 labeled cyclic RGD derivative of Example 5 was injected once in a week, for four weeks. The models to determine treatment effect were divided into small radioactive injection group (300 μCi) and large radioactive injection group (600 μCi), and at the same time, a control group injected with sterilized saline and a comparative group injected with 100 μg of cyclic RGD (cRGDyV) intraperitoneally everyday, were also set. The compound of Example 11 and the sterilized saline were administered through tail veins. The CT images was taken once a week, to visually measure the growth and size of the subcutaneous tumor. The tumor was actually measured three times a week using Vernier Calipers, and the weights of the animal models were also consistently measured three times a week for total 4 weeks.

tumor = system: tumor
Experimental: The small-animal SPECT/CT was used to acquire static imaging of the mice for 60 minutes after the injection. The imaging protocol consisted of repetition of emission and transmission as follows: [10 min emission+transmission]×6 times

[1] = 600 μCi once a week for four weeks
[2] = 600 μCi once a week, 0.3 cc at initial measurement
[3] = 100 μg cyclic RGD (cRGDyV) intraperitoneally everyday, initial tumor size 0.7 cc

## (tricarbonyl-[^99mTc]technetium-N-α-bis-hydroxycarbonyl methyl-aspartic acid)-[cyclic (lysine-alginine-glycine-aspartic acid-D-phenylalanine)]2 [Example 15]
Integrin αvβ3
  reduction of absorption in tumor after administration of cyclic RGD (cRGDyV): ≥ 94%

## cyclic{(tricarbonyl-[^188Re]rhenium-N-α-bis-hydroxycarbonyl methyl-glycine-CONH(CH2CH2O)4CH2CH2CONH-lysine)-alginine-glycine-aspartic acid-D-phenylalanine} [Example 11]
Subcutaneous tumor; 300 μCi once a week for four weeks
  tumor growth suppression ability compared to sterilized saline or cyclic RGD groups: approximately 50%
Subcutaneous tumor; 300 μCi tail vein once a week for four weeks, initial tumor size 0.23 cc
  tumor size when the treatment for four weeks was ended: 0.66 cc
Subcutaneous tumor; [1]
  tumor growth suppression ability compared to low radiation energy treatment group (300 μCi): approximately 79%
  tumor growth suppression ability compared to sterilized saline and cyclic RGD groups: approximately 90%
Subcutaneous tumor; 600 μCi once a week for four weeks, 0.3 cc at initial measurement
  tumor size at the end of the treatment: 1.4 cc
Subcutaneous tumor; [2]
  tumor size at 3 week: 0.7 cc
  tumor size at week 2: 0.3 cc

## (tricarbonyl [^188Re]rhenium-N-α-bis-hydroxycarbonyl methyl-aspartic acid)-[cyclic(lysine-alginine-glycine-aspartic acid-D-phenylalanine)]2 [Example 12]
tumor; 600 μCi/200 μL
  CD31 blood vessel staining of tumor tissue slice: no clear vessels were observed
  integrin αvβ3 distribution in tumor tissue slice using Q-dot RGD derivatives: most integrin was damaged
tumor; 600 μCi/200 μL, SPECT after three days
  reduction of uptake rate in tumor (SPECT with the compound of Example 15) versus non-administered model: 59%
tumor; 600 μCi/200 μL, versus non-administered model
  distribution of blood vessels around the tumor (photographs of removed tumors): noticeably less distribution of ambient blood vessels

## cyclic{(tricarbonyl-[^185/187Re]rhenium-N-α-bis-hydroxycarbonyl methyl-alginine-glycine-aspartic acid-D-phenylalanine} [Example 6]
tumor; 600 μCi/200 μL single injection, initial size 0.3 cc, non-administered model 0.65 cc
  tumor size after three days: 0.35 cc

## cRGDyV [cyclic RGD]
Subcutaneous tumor; 100 μg cyclic RGD (cRGDyV) intraperitoneally everyday
  rate of tumor growth compared with sterilized saline group: no meaningful difference
Subcutaneous tumor; 100 μg cyclic RGD (cRGDyV) intraperitoneally everyday, initial measurement 23 g
  weight of animals after treatment: 30 g
Subcutaneous tumor; [3]
  tumor size at 2 week: 3.9 cc
  tumor size at 3 week: 8.0 cc
  tumor size at last week of treatment: 12.9 cc
